Measurements as given in a compilation of properties of binary mixtures (doi:10.1590/0104-6632.20180352s20160280).

Test: xn = mol fraction of the nth substance listed
Conditions: 100 kPa

For `O=C[O-].OCC[NH2+]CCO` + O, the viscosity (293.15 K, x1 = 0.0292) was 1.69 mPa·s, the viscosity (293.15 K, x1 = 0.1516) was 8.2 mPa·s and the viscosity (293.15 K, x1 = 0.2184) was 16.1 mPa·s. It also gave a viscosity (293.15 K, x1 = 0.5155) of 112 mPa·s, a viscosity (293.15 K, x1 = 0.5932) of 133 mPa·s and a viscosity (293.15 K, x1 = 0.7378) of 243 mPa·s. The viscosity (293.15 K, x1 = 0.7987) was 329 mPa·s, the viscosity (303.15 K, x1 = 0.075) was 2.5 mPa·s and the viscosity (303.15 K, x1 = 0.1516) was 5.9 mPa·s. It also gave a viscosity (303.15 K, x1 = 0.2184) of 11 mPa·s, a viscosity (303.15 K, x1 = 0.3185) of 23.2 mPa·s and a viscosity (303.15 K, x1 = 0.5155) of 65 mPa·s. It also gave a viscosity (303.15 K, x1 = 0.5932) of 76 mPa·s, a viscosity (303.15 K, x1 = 0.7378) of 132 mPa·s and a viscosity (303.15 K, x1 = 1) of 242 mPa·s. For the same compound, the viscosity (313.15 K, x1 = 0.0292) was 1.1 mPa·s, the viscosity (313.15 K, x1 = 0.1516) was 4.48 mPa·s and the viscosity (313.15 K, x1 = 0.2184) was 8 mPa·s. For the same compound, the viscosity (313.15 K, x1 = 0.3185) was 15.8 mPa·s, the viscosity (313.15 K, x1 = 0.5155) was 40.7 mPa·s and the viscosity (313.15 K, x1 = 0.5932) was 46.6 mPa·s. It also gave a viscosity (313.15 K, x1 = 0.7378) of 77 mPa·s, a viscosity (313.15 K, x1 = 0.7987) of 99 mPa·s and a viscosity (313.15 K, x1 = 1) of 135 mPa·s. For the same compound, the viscosity (323.15 K, x1 = 0.0292) was 0.93 mPa·s, the viscosity (323.15 K, x1 = 0.075) was 1.64 mPa·s and the viscosity (323.15 K, x1 = 0.1516) was 3.51 mPa·s. It also gave a viscosity (323.15 K, x1 = 0.2184) of 6 mPa·s, a viscosity (323.15 K, x1 = 0.3185) of 11.3 mPa·s and a viscosity (323.15 K, x1 = 0.5155) of 27.1 mPa·s. It also gave a viscosity (323.15 K, x1 = 0.5932) of 30.6 mPa·s, a viscosity (323.15 K, x1 = 0.7378) of 49 mPa·s and a viscosity (323.15 K, x1 = 0.7987) of 61 mPa·s. It also gave a viscosity (323.15 K, x1 = 1) of 82 mPa·s, a viscosity (333.15 K, x1 = 0.0292) of 0.8 mPa·s and a viscosity (333.15 K, x1 = 0.075) of 1.38 mPa·s. The viscosity (333.15 K, x1 = 0.1516) was 2.82 mPa·s, the viscosity (333.15 K, x1 = 0.2184) was 4.68 mPa·s and the viscosity (333.15 K, x1 = 0.5155) was 19 mPa·s. It also gave a viscosity (333.15 K, x1 = 0.5932) of 21.2 mPa·s, a viscosity (333.15 K, x1 = 0.7378) of 32.8 mPa·s and a viscosity (333.15 K, x1 = 1) of 53 mPa·s. The viscosity (343.15 K, x1 = 0.0292) was 0.7 mPa·s, the viscosity (343.15 K, x1 = 0.075) was 1.18 mPa·s and the viscosity (343.15 K, x1 = 0.1516) was 2.33 mPa·s. It also gave a viscosity (343.15 K, x1 = 0.2184) of 3.75 mPa·s, a viscosity (343.15 K, x1 = 0.3185) of 6.5 mPa·s and a viscosity (343.15 K, x1 = 0.5155) of 13.9 mPa·s. The viscosity (343.15 K, x1 = 0.7378) was 23 mPa·s and the viscosity (343.15 K, x1 = 0.7987) was 27.8 mPa·s.

For `O` + O=C[O-].OCC[NH2+]CCO, the viscosity (293.15 K, x2 = 0) was 1 mPa·s, the viscosity (303.15 K, x2 = 0) was 0.82 mPa·s and the viscosity (333.15 K, x2 = 0) was 0.5 mPa·s. The viscosity (343.15 K, x2 = 0) was 0.451 mPa·s.
